Test results as given in patent US20030166554A1, “Treatment of CNS disorders using D-amino acid oxidase and D-aspartate oxidase antagonists” (GENSET, S.A., priority 2001, published 2003).

What was measured:
[1] = system: PCP-induced hyperactivity in male Swiss mice; test: Locomotor hyperactivity induced by PCP in mice (open field); format: in vivo; settings: 30 minute open field, mean +/- s.e.m.
Experimental: Randomized groups of 10 male Swiss mice (9 weeks old, Elevage Janvier; Le Genest-St-Isle, France) were used for each study.
Mice were group-housed and maintained in an incubator with controlled temperature (21-22° C.) and a reversed light-dark cycle (12 h/12 h) with food and water available ad libitum. All experiments were carried out in accordance with institutional guidelines.
It is well known to those skilled in the art that phencyclidine (PCP) intoxication in mice closely mimics schizophrenia and therefore is commonly used as an animal model of schizophrenia. In the following experiments, the ability of the DAO inhibitor, sodium benzoate, to reverse PCP-induced hyperactivity was monitored. PCP and the test compound, sodium benzoate, were diluted in a 0.9% sterile aqueous solution of sodium chloride (1 mg/ml). Sodium benzoate was administered by intraperitoneal injection (IP) 2 hours before administration of PCP (0.3 mg/kg by subcutaneous (SC) injection 15 minutes before start of the test). The animals were placed into an open field, which was divided into nine equal squares. A video track (Viewpoint system) was placed over a Plexiglas open field (OF; length 52 cm×52 cm; height 40 cm) and animal activity was recorded. Over a 30 minute time period, two parameters were recorded: (a) number of crossed squares and (b) total distance walked.
A global analysis of the data was performed using a one way ANOVA followed by a Dunnett's test if possible. The level of significance was set at p<0.05. Results were expressed was mean +/− standard error of the mean (s.e.m.).

HR-peroxidase = test: Peroxidase control assay (hydrogen peroxide substrate); format: biochemical; settings: conditions identical to DAAO assay
From the text: The assay of peroxidase was done in the conditions identical to those for DAAO assay; hydrogen peroxide (Gibco) was used as a substrate, and no effect of g34872 on HRP activity was confirmed.

hDAAO = target: T1, hDAAO (Homo sapiens, UniProt P14920); test: DAAO activity of combined yeast extracts expressing hDAAO and g34872; format: biochemical; settings: D-serine, 37° C., FIG. 1
T1 construct: made in house; host or cells: Saccharomyces cerevisiae (YPH499 and FY1679-18B strains), pESC-Leu vector, galactose induction; crude extract
Experimental: (§1) The assay mixture was typically composed of D-serine (Aldrich) 200 mM, FAD (Sigma) at 0.1 mM, sodium phosphate buffer pH8 at 75 mM, HR-peroxidase (Sigma) 1U/ml. The mixture was air-saturated just before use. o-Dianizidine (Sigma) was added in the mixture. In the typical assay 5 μl of the enzyme (DAAO and mixes) was added to 25 μl of the assay mixture, the incubation was stopped with 50 μl of 20% H2SO4. The activity was observed as absorbance of the peroxidase-oxidized o-Dianizidine at 540 nm. The reactions containing high protein concentrations were centrifuged 15 min at 14000 rpm before absorbance measuring.
Yeast cells were transformed with the plasmids constructed in pESC-Leu expression vector. One plasmid can express hDAAO, second one—C-terminal tagged g34872, third—is the vector without insertion (control). After the induction of the expression (2% galactose in the medium) these cells were incubated for 24 h, than the extracts were maid and combined as follow: different volumes of DAAO extract were mixed with either g34872-cHis6 or with the vector extracts. The same volumes of DAAO extracts were also mixed with BSA (external control). After 30min of the pre-incubation the combined extracts were used for DAAO activity measuring. All yeast extracts and BSA solution had the same total protein concentration. DAAO activity was determined with D-serine at 37° C.

Pig kidney DAAO = target: T2, Pig kidney DAAO (Sus scrofa, UniProt P00371); test: DAAO kinetics in the presence of g34872 protein (D-serine substrate); format: biochemical; settings: 20° C.
T2 construct: The crude preparation of pig kidney DAAO was purchased from Sigma; purchased Sigma; host or cells: pig kidney tissue; purified further in house (Sephadex G-50, DEAE-Sepharose, Ultragel AcA44)
Experimental: as §1
Pig kidney DAAO was mixed with g34872 in PBS and incubated 30 min at 20° C. DAAO concentration was 200 ng/μl and g34872 concentration was 2 μg/μl in the protein mixture. The control mixture (without g34872) was composed of 200 ng/μl DAAO and 2 μg/μl BSA. The enzymatic activity of DAAO was measured at 20° C. with D-serine, the substrate concentration used were from 0 to 100 mM, other corposants of the mixture and pH were standard.

[2] = sodium benzoate 400 mg/kg IP 2 hours before PCP 0.3 mg/kg SC
[3] = PCP alone 0.3 mg/kg SC 15 minutes before test

T2 sequence (P00371 whole entry): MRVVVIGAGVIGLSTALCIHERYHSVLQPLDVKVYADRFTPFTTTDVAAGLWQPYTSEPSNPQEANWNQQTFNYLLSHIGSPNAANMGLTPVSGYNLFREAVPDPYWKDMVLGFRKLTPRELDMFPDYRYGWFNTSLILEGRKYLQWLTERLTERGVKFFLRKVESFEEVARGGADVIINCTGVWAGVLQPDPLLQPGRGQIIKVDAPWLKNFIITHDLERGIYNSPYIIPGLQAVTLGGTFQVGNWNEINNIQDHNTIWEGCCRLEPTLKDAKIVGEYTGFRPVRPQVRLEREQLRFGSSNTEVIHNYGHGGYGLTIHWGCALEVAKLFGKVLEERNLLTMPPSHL
T1 sequence (P14920 whole entry): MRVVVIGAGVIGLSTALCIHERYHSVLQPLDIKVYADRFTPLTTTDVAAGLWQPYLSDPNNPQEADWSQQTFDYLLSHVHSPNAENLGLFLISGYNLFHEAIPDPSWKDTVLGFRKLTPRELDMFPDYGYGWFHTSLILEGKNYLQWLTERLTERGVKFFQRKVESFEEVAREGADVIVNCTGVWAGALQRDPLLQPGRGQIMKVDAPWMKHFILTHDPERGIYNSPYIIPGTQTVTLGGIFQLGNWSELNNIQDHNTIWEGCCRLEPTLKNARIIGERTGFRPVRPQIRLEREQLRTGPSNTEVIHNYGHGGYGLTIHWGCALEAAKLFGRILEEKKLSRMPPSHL

## O=C([O-])c1ccccc1.[Na+] [sodium benzoate]
[1]; sodium benzoate 125 mg/kg IP 2 hours before PCP 0.3 mg/kg SC
  total distance walked: 14807.7+/−756.8
[1]; [2]
  number of crossed squares: 740.1+/−114.1
  total distance walked: 13521.0+/−1705.6

## c1ccc(C2(N3CCCCC3)CCCCC2)cc1 [PCP, phencyclidine]
[1]; [3]
  number of crossed squares: 977.0+/−64.6
  total distance walked: 18781.8+/−1447.5

B1: g34872: purified recombinant g34872 protein, binding partner and activator of DAO (protein)
chain: HEDGYLEMAQRHLQRSLCPWVSYLPQPYAELEEVSSHVGKVFMARNYEFLAYEASKDRRQPLERMWTCNYNQQKDQSCNHKEITSTKAE
HR-peroxidase
  effect on HRP activity: no effect
hDAAO
  effect on DAO activity: activates DAO
Pig kidney DAAO; g34872&DAAO mix: DAAO 200 ng/μl, g34872 2 μg/μl, D-serine 0 to 100 mM
  Km: 4 mM
Pig kidney DAAO; pig kidney DAAO, D-serine
  effect of g34872 on DAAO (mode of action): Allosteric Activator
